Test results: patent publication US20240018133A1, “MODULATORS OF THE INTEGRATED STRESS PATHWAY” (Calico Life Sciences LLC, priority 2019, published 2024)

The compounds below were run on ATF4 luciferase reporter (human full-length ATF4 5'-UTR fused to firefly luciferase) in HEK293T cells (assay: ATF4-Luc assay (in vitro model of VWMD): HEK293T cells carrying ATF4 luciferase reporter, tunicamycin-treated). Details: Homo sapiens, HEK-293T, 1 μg/mL tunicamycin, 7 hours, One Glo luminescence.
Format: cell-based
Procedure, shortened: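 Stable HEK293T line with human ATF4 5′-UTR–firefly luciferase reporter treated with 1 μg/mL tunicamycin plus 200 nM compound for 7 h. Luminescence read; EC50 derived.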
For `O=C(COc1ccc(Cl)c(F)c1)NC12CC(NC(=O)c3cc(=O)c4ccc(O)cc4o3)(C1)C2` [Compound 295, N-{3-[2-(4-chloro-3-fluorophenoxy)acetamido]bicyclo[1.1.1]pentan-1-yl}-7-hydroxy-4-oxo-4H-1-benzopyran-2-carboxamide], the EC50 was over 2000 nM. `CCC1(O)CC(C(=O)NC23CC(NC(=O)COc4ccc(Cl)c(F)c4)(C2)C3)Oc2ccc(Cl)cc21` (stereo not shown) [Compound 297, 6-chloro-N-{3-[2-(4-chloro-3-fluorophenoxy)acetamido]bicyclo[1.1.1]pentan-1-yl}-4-ethyl-4-hydroxy-3,4-dihydro-2H-1-benzopyran-2-carboxamide] was tested, and the EC50 was under 10 nM. For `O=C(COc1ccc(Cl)c(F)c1)NC12CC(NC(=O)C3C/C(=N\O)c4cc(F)ccc4O3)(C1)C2` (stereo not shown) [Compound 298, N-{3-[2-(4-chloro-3-fluorophenoxy)acetamido]bicyclo[1.1.1]pentan-1-yl}-6-fluoro-4-(hydroxyimino)-3,4-dihydro-2H-1-benzopyran-2-carboxamide], the EC50 was 10 to 50 nM. `O=C(COc1ccc(C(F)(F)F)nc1)NC12CC(NC(=O)[C@@H]3C[C@H](O)c4cc(Cl)ccc4O3)(C1)C2` [Compound 299, (2S,4S)-6-chloro-4-hydroxy-N-[3-(2-{[6-(trifluoromethyl)pyridin-3-yl]oxy}acetamido)bicyclo[1.1.1]pentan-1-yl]-3,4-dihydro-2H-1-benzopyran-2-carboxamide] gave an EC50 of 10 to 50 nM. In the case of `O=C(COc1ccc(Cl)c(F)c1)NC12CC(NC(=O)C3CC(O)c4cc(F)ccc4O3)(C1)C2` (stereo not shown) [Compound 300, N-{3-[2-(4-chloro-3-fluorophenoxy)acetamido]bicyclo[1.1.1]pentan-1-yl}-6-fluoro-4-hydroxy-3,4-dihydro-2H-1-benzopyran-2-carboxamide], the EC50 is reported as under 10 nM. `CNC1CC(C(=O)NC23CCC(NC(=O)COc4ccc(Cl)c(F)c4)(CC2)[C@@H](O)C3)Oc2ccc(Cl)cc21` (stereo partly drawn) [Compound 303, 6-chloro-N-{(3S)-4-[2-(4-chloro-3-fluorophenoxy)acetamido]-3-hydroxybicyclo[2.2.2]octan-1-yl}-4-(methylamino)-3,4-dihydro-2H-1-benzopyran-2-carboxamide] gave an EC50 of under 10 nM. `O=C(NC12CCC(NC(=O)C3CC(=O)c4cc(Cl)ccc4O3)(CC1)CC2)c1cnc(C(F)F)cn1` (stereo not shown) [Compound 304, N-{4-[(6-chloro-4-oxo-3,4-dihydro-2H-1-benzopyran-2-carbonyl)amino]bicyclo[2.2.2]octan-1-yl}-5-(difluoromethyl)pyrazine-2-carboxamide] gave an EC50 of 500 to 2000 nM. Work on `NC1CC(C(=O)NC23CC(NC(=O)COc4ccc(Cl)c(F)c4)(C2)C3)Oc2ccc(Cl)cc21` (stereo not shown) [Compound 305, 4-amino-6-chloro-N-{3-[2-(4-chloro-3-fluorophenoxy)acetamido]bicyclo[1.1.1]pentan-1-yl}-3,4-dihydro-2H-1-benzopyran-2-carboxamide] yielded an EC50 of under 10 nM. Compound `O=C(COc1ccc(Cl)c(F)c1)NC12CCC(NC(=O)[C@@H]3C[C@H](O)c4cc(Cl)ccc4O3)(CC1)CC2` [Compound 306, (2S,4S)-6-chloro-N-{4-[2-(4-chloro-3-fluorophenoxy)acetamido]bicyclo[2.2.2]octan-1-yl}-4-hydroxy-3,4-dihydro-2H-1-benzopyran-2-carboxamide] has an EC50 of 10 to 50 nM. `O=C(COc1ccc(Cl)c(F)c1)NC12CC(NC(=O)[C@H]3C=Cc4cc(Cl)ccc4O3)(C1)C2` [Compound 307, (2R)-6-chloro-N-{3-[2-(4-chloro-3-fluorophenoxy)acetamido]bicyclo[1.1.1]pentan-1-yl}-2H-1-benzopyran-2-carboxamide] gave an EC50 of under 10 nM. `O=C(COc1ccc(Cl)c(F)c1)NC12CC(NC(=O)[C@H]3C[C@@H](NCCO)c4cc(Cl)ccc4O3)(C1)C2` [Compound 308, (2R,4R)-6-chloro-N-{3-[2-(4-chloro-3-fluorophenoxy)acetamido]bicyclo[1.1.1]pentan-1-yl}-4-[(2-hydroxyethyl)amino]-3,4-dihydro-2H-1-benzopyran-2-carboxamide] gave an EC50 of 10 to 50 nM. With `O=C(COc1ccc(Cl)c(F)c1)NC12CC(NC(=O)[C@@H]3C[C@H](NCCO)c4cc(Cl)ccc4O3)(C1)C2` [Compound 309, (2S,4S)-6-chloro-N-{3-[2-(4-chloro-3-fluorophenoxy)acetamido]bicyclo[1.1.1]pentan-1-yl}-4-[(2-hydroxyethyl)amino]-3,4-dihydro-2H-1-benzopyran-2-carboxamide] the EC50 was under 10 nM. With `O=C(COc1ccc(Cl)c(F)c1)NC12CCC(NC(=O)C3CC(=O)c4cc(Cl)ccc4O3)(C1)C2` (stereo not shown) [Compound 310, 6-chloro-N-{4-[2-(4-chloro-3-fluorophenoxy)acetamido]bicyclo[2.1.1]hexan-1-yl}-4-oxo-3,4-dihydro-2H-1-benzopyran-2-carboxamide] the EC50 was 10 to 50 nM. `O=C(NC12CCC(NC(=O)C3CC(=O)c4cc(Cl)ccc4O3)(C1)C2)c1ccc(OC(F)(F)F)cn1` (stereo not shown) [Compound 311, N-{4-[(6-chloro-4-oxo-3,4-dihydro-2H-1-benzopyran-2-carbonyl)amino]bicyclo[2.1.1]hexan-1-yl}-5-(trifluoromethoxy)pyridine-2-carboxamide] showed an EC50 of 50 to 250 nM. `O=C(NC12CCC(NC(=O)C3CC(=O)c4cc(Cl)ccc4O3)(C1)C2)OCc1ccccc1` (stereo not shown) [Compound 312, benzyl {4-[(6-chloro-4-oxo-3,4-dihydro-2H-1-benzopyran-2-carbonyl)amino]bicyclo[2.1.1]hexan-1-yl}carbamate] showed an EC50 of 500 to 2000 nM. With `O=C(COc1ccc(Cl)c(F)c1)NC12CC(NC(=O)c3cc(=O)c4ccc(F)cc4o3)(C1)C2` [Compound 313, N-{3-[2-(4-chloro-3-fluorophenoxy)acetamido]bicyclo[1.1.1]pentan-1-yl}-7-fluoro-4-oxo-4H-1-benzopyran-2-carboxamide] the EC50 was 10 to 50 nM. In the case of `CNC1CC(C(=O)NC23CC(NC(=O)COc4ccc(Cl)c(F)c4)(C2)C3)Oc2ccc(Cl)cc21` (stereo not shown) [Compound 314, 6-chloro-N-{3-[2-(4-chloro-3-fluorophenoxy)acetamido]bicyclo[1.1.1]pentan-1-yl}-4-(methylamino)-3,4-dihydro-2H-1-benzopyran-2-carboxamide], the EC50 is reported as under 10 nM. With `O=C(COc1ccc(Cl)c(F)c1)NC12CC(NC(=O)C3=CC(O)c4cc(Cl)ccc4O3)(C1)C2` (stereo not shown) [Compound 315, 6-chloro-N-{3-[2-(4-chloro-3-fluorophenoxy)acetamido]bicyclo[1.1.1]pentan-1-yl}-4-hydroxy-4H-1-benzopyran-2-carboxamide] the EC50 was under 10 nM. In the case of `O=C(COc1ccc(Cl)c(F)c1)NC12CC(NC(=O)[C@@H]3C[C@@H](N[C@H]4C[C@@H](O)C4)c4cc(Cl)ccc4O3)(C1)C2` [Compound 316, (2S,4R)-6-chloro-N-{3-[2-(4-chloro-3-fluorophenoxy)acetamido]bicyclo[1.1.1]pentan-1-yl}-4-{[(1s,3S)-3-hydroxycyclobutyl]amino}-3,4-dihydro-2H-1-benzopyran-2-carboxamide], the EC50 is reported as 50 to 250 nM. Compound `O=C(COc1ccc(Cl)c(F)c1)NC12CC(NC(=O)C3=Cc4ccc(Cl)cc4OC3)(C1)C2` [Compound 317, 7-chloro-N-{3-[2-(4-chloro-3-fluorophenoxy)acetamido]bicyclo[1.1.1]pentan-1-yl}-2H-1-benzopyran-3-carboxamide] has an EC50 of 10 to 50 nM. Compound `O=C(COc1ccc(Cl)c(F)c1)NC12CC(NC(=O)c3cc(=O)c4cc(Cl)ccc4o3)(C1)C2` [Compound 318, 6-chloro-N-{3-[2-(4-chloro-3-fluorophenoxy)acetamido]bicyclo[1.1.1]pentan-1-yl}-4-oxo-4H-1-benzopyran-2-carboxamide] has an EC50 of under 10 nM. With `O=C(COc1ccc(Cl)c(F)c1)NC12CC(NC(=O)[C@@H]3C[C@H](NCC(F)(F)F)c4cc(Cl)ccc4O3)(C1)C2` [Compound 319, (2S,4S)-6-chloro-N-{3-[2-(4-chloro-3-fluorophenoxy)acetamido]bicyclo[1.1.1]pentan-1-yl}-4-[(2,2,2-trifluoroethyl)amino]-3,4-dihydro-2H-1-benzopyran-2-carboxamide] the EC50 was 50 to 250 nM. Compound `C[C@@]1(C(=O)NC23CC(NC(=O)COc4ccc(Cl)c(F)c4)(C2)C3)Oc2ccc(Cl)cc2C1=O` [Compound 320, (2R)-5-chloro-N-{3-[2-(4-chloro-3-fluorophenoxy)acetamido]bicyclo[1.1.1]pentan-1-yl}-2-methyl-3-oxo-2,3-dihydro-1-benzofuran-2-carboxamide] has an EC50 of 500 to 2000 nM. With `O=C(COc1ccc(F)c(F)c1)NC12CC(NC(=O)[C@@H]3CC(=O)c4cc(F)c(F)cc4O3)(C1)C2` [Compound 321, (2S)—N-{3-[2-(3,4-difluorophenoxy)acetamido]bicyclo[1.1.1]pentan-1-yl}-6,7-difluoro-4-oxo-3,4-dihydro-2H-1-benzopyran-2-carboxamide] the EC50 was 50 to 250 nM. `COc1ccc2oc(C(=O)NC34CC(NC(=O)COc5ccc(Cl)c(F)c5)(C3)C4)cc(=O)c2n1` [Compound 322, N-{3-[2-(4-chloro-3-fluorophenoxy)acetamido]bicyclo[1.1.1]pentan-1-yl}-6-methoxy-4-oxo-4H-pyrano[3,2-b]pyridine-2-carboxamide] gave an EC50 of 50 to 250 nM. In the case of `O=C(COc1ccc(Cl)c(F)c1)NC12CC(NC(=O)[C@@H]3C[C@@H](NCC(F)(F)F)c4cc(Cl)ccc4O3)(C1)C2` [Compound 323, (2S,4R)-6-chloro-N-{3-[2-(4-chloro-3-fluorophenoxy)acetamido]bicyclo[1.1.1]pentan-1-yl}-4-[(2,2,2-trifluoroethyl)amino]-3,4-dihydro-2H-1-benzopyran-2-carboxamide], the EC50 is reported as 50 to 250 nM. `CN(C(=O)c1cc(=O)c2cc(Cl)ccc2o1)C12CC(NC(=O)COc3ccc(Cl)c(F)c3)(C1)C2` [Compound 324, 6-chloro-N-{3-[2-(4-chloro-3-fluorophenoxy)acetamido]bicyclo[1.1.1]pentan-1-yl}-N-methyl-4-oxo-4H-1-benzopyran-2-carboxamide] was tested, and the EC50 was 250 to 500 nM. Work on `O=C(COc1ccc(Cl)c(F)c1)NC12CC(NC(=O)[C@H]3CN(CC4(O)CC4)c4cc(Cl)ccc4O3)(C1)C2` [Compound 325, (2R)-6-chloro-N-{3-[2-(4-chloro-3-fluorophenoxy)acetamido]bicyclo[1.1.1]pentan-1-yl}-4-[(1-hydroxycyclopropyl)methyl]-3,4-dihydro-2H-1,4-benzoxazine-2-carboxamide] yielded an EC50 of 10 to 50 nM.
